The target in this test is Hrh3 protein (Rattus norvegicus, UniProt Q5PPG3).
Sequence of Hrh3 protein (Q5PPG3 whole entry): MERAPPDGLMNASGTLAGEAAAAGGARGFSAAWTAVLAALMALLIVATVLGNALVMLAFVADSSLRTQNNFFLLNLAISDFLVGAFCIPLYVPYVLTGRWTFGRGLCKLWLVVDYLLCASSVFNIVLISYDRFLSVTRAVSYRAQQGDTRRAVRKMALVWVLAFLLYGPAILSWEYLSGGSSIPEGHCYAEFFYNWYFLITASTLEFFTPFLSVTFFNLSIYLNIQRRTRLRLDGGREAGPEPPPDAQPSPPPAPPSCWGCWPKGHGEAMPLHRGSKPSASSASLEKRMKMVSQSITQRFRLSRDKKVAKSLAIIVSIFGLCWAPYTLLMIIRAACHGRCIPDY

A word on the Ki: it is a dissociation constant, usually derived from enzyme kinetics or from competition with a known ligand. Read a low Ki as a stronger hold on the target. `S=C(NC1CCCCC1)N1CCC(c2cnc[nH]2)CC1`: the Ki came out at 1.8 nM.

The values are drawn from BindingDB's records for PubMed 7473144 (Gliatech, 1995).
